Experimental data published in PubChem BioAssay (NCI).
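Dose response: 5 concentrations. Exposure: 48 h. Format: 96-well plates. Endpoint: linear interpolation; highest concentration if not reached. The concentration for 50% growth inhibition is given as GI50. TGI marks complete inhibition of growth.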

Tests used:
Assay in all cases: DTP human tumour cell line panel, 48 h
[1] = tested on: OVCAR-4 ovarian
[2] = tested on: T-47D breast
[3] = tested on: COLO 205 colon
[4] = tested on: UACC-62 melanoma
[5] = tested on: OVCAR-3 ovarian
[6] = tested on: DU-145 prostate
[7] = tested on: NCI-H23 lung
[8] = tested on: RPMI-8226 leukemia
[9] = tested on: HOP-62 NSCLC
[10] = tested on: MDA-MB-435
[11] = tested on: LOX IMVI melanoma
[12] = tested on: SK-OV-3 ovarian
[13] = tested on: NCI/ADR-RES ovarian
[14] = tested on: SF-295 CNS
[15] = tested on: HCC-2998 colon
[16] = tested on: CCRF-CEM leukemia
[17] = tested on: HS 578T breast
[18] = tested on: M14 melanoma
[19] = tested on: NCI-H226 lung
[20] = tested on: A498 renal
[21] = tested on: SK-MEL-5 melanoma
[22] = tested on: UO-31 renal
[23] = tested on: SK-MEL-2 melanoma
[24] = tested on: CAKI-1 renal
[25] = tested on: SR leukemia
[26] = tested on: SN12C renal
[27] = tested on: SF-268 CNS
[28] = tested on: K-562 leukemia
[29] = tested on: MALME-3M melanoma
[30] = tested on: HCT-116 colon
[31] = tested on: A549 NSCLC
[32] = tested on: MCF7 breast
[33] = tested on: RXF 393 renal
[34] = tested on: 786-0 renal
[35] = tested on: IGROV1 ovarian
[36] = tested on: U251 CNS
[37] = tested on: NCI-H460 lung
[38] = tested on: SK-MEL-28 melanoma
[39] = tested on: HCT-15 colon
[40] = tested on: SNB-19 CNS
[41] = tested on: KM12 colon
[42] = tested on: OVCAR-8 ovarian
[43] = tested on: PC-3 prostate
[44] = tested on: OVCAR-5 ovarian
[45] = tested on: TK-10 renal
[46] = tested on: MOLT-4 leukemia
[47] = tested on: ACHN renal
[48] = tested on: NCI-H522 lung
[49] = tested on: HOP-92 NSCLC

## CCCNc1nc(-c2ccc(OC)cc2)nc2ccccc12
[1]
  GI50: 41 µM
  TGI: > 100 µM
[2]
  GI50: 31.4 µM
  TGI: > 100 µM
[3]
  GI50: 19.9 µM
  TGI: > 100 µM
[4]
  GI50: 15.4 µM
  TGI: 35.5 µM
[5]
  GI50: 11.8 µM
  TGI: 26.9 µM
[6]
  GI50: 14.3 µM
  TGI: 32.2 µM
[7]
  GI50: 18 µM
  TGI: 45.9 µM
[8]
  GI50: 3.96 µM
  TGI: 22.6 µM
[9]
  GI50: 14.9 µM
  TGI: 31.2 µM
[10]
  GI50: 14.5 µM
  TGI: 29.2 µM
[11]
  GI50: 18.4 µM
  TGI: 37.5 µM
[12]
  GI50: 18.9 µM
  TGI: 53 µM
[13]
  GI50: 11 µM
  TGI: 36.2 µM
[14]
  GI50: 15.7 µM
  TGI: 32.2 µM
[15]
  GI50: 13.6 µM
  TGI: 34.4 µM
[16]
  GI50: 11.1 µM
  TGI: 68.3 µM
[17]
  GI50: 17.9 µM
  TGI: 42.9 µM
[18]
  GI50: 10.6 µM
  TGI: 24.7 µM
[19]
  GI50: 16.1 µM
  TGI: 41.9 µM
[20]
  GI50: 11.9 µM
  TGI: 25 µM
[21]
  GI50: 12.5 µM
  TGI: 27.7 µM
[22]
  GI50: 19.1 µM
  TGI: > 100 µM
[23]
  GI50: 35.2 µM
  TGI: > 100 µM
[24]
  GI50: 13.3 µM
  TGI: 27.9 µM
[25]
  GI50: 13.8 µM
  TGI: > 100 µM
[26]
  GI50: 20.2 µM
  TGI: 46.1 µM
[27]
  GI50: 16.3 µM
  TGI: 38.8 µM
[28]
  GI50: > 100 µM
  TGI: > 100 µM
[29]
  GI50: 15.1 µM
  TGI: 29.3 µM
[30]
  GI50: 6.85 µM
  TGI: 27.7 µM
[31]
  GI50: 11.1 µM
  TGI: 49.6 µM
[32]
  GI50: 19.5 µM
  TGI: > 100 µM
[33]
  GI50: 15.4 µM
  TGI: 35.5 µM
[34]
  GI50: 13.7 µM
  TGI: 33 µM
[35]
  GI50: 24 µM
  TGI: > 100 µM
[36]
  GI50: 16.7 µM
  TGI: 37.8 µM
[37]
  GI50: 10.5 µM
  TGI: 44 µM
[38]
  GI50: 18.6 µM
  TGI: 53.6 µM
[39]
  GI50: 14.3 µM
  TGI: 31.9 µM
[40]
  GI50: 34.8 µM
  TGI: > 100 µM
[41]
  GI50: 14.6 µM
  TGI: 30.8 µM
[42]
  GI50: 25 µM
  TGI: 95 µM
[43]
  GI50: 14.9 µM
  TGI: 46.5 µM
[44]
  GI50: 16.4 µM
  TGI: 43 µM
[45]
  GI50: 13.2 µM
  TGI: 26.7 µM
[46]
  GI50: 46.4 µM
  TGI: > 100 µM
[47]
  GI50: 15.8 µM
  TGI: 33.3 µM
[48]
  GI50: 22.3 µM
  TGI: > 100 µM
[49]
  GI50: 9.06 µM
  TGI: 29.3 µM
